Test results taken from patent US20220380347A1, “INHIBITORS OF CYSTEINE PROTEASES AND METHODS OF USE THEREOF” (Pardes Biosciences, Inc., priority 2020, published 2022).
pEC50, pIC50: −log10 of the molar value. Where two headings read alike, the source gives them in different places.

Key:
[1] = biological target: COVID-19 (nCoV-2019, SARS-CoV2) Mpro (Severe acute respiratory syndrome coronavirus 2, UniProt P0DTD1); assay: COVID-19 (nCoV-2019, SARS-CoV2) Mpro enzymatic assay; type: biochemical; conditions: 25 nM Mpro, 25 μM substrate; read-out: COVID-19 Mpro IC50
HCov OC43 = assay: HCoV OC43 cytopathic effect (CPE) assay, CellTiter Glo; type: cell-based, human coronavirus (HCov) OC43
229E Mpro = 229E Mpro (Human coronavirus 229E, UniProt P0C6X1); assay: 229E Mpro enzymatic assay (standard methods, SARS-CoV2 Mpro assay given as exemplary); type: biochemical, human coronavirus (HCov) 229E
229E Mpro, sequence (P0C6X1 2966-3267): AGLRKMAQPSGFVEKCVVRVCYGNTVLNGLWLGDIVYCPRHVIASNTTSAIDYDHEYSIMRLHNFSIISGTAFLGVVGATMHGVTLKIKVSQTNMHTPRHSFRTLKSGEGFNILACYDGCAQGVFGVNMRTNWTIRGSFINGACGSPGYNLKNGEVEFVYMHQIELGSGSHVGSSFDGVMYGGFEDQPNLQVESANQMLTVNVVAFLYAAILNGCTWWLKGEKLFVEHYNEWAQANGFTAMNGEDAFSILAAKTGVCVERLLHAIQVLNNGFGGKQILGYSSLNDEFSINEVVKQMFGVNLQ
Procedure, shortened: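 Run by standard methods, with the SARS-CoV-2 Mpro protocol given as the model: E. coli-expressed C-His6 protease at 25 nM and substrate at 25 μM (Km 13.5 μM). Buffer pH 7.3 with 5 mM TCEP and 0.1% BSA; % inhibition versus controls fitted to variable-slope log(inhibitor)-response for IC50.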

[2] = Betacoronavirus 1, OC43, read-out: OC43 IC50 (uM) MEDIAN, median
[3] = read-out: OC43 IC50 (uM) MEDIAN, median

Structure (SMILES)	pIC50 [1]	IC50 (HCov OC43; [2])	pEC50 (229E Mpro; 229E Mpro EC50)	IC50 (HCov OC43; [3])	pEC50 (229E Mpro; read-out: 229E Mpro EC50)
CC(C)(C)c1ccc(N(C(=O)[C@H]2[C@H](F)CCN2C#N)C(C(=O)NC2CCC(F)(F)CC2)c2cncc(F)c2)cc1 (single isomer, unassigned) [1212 Isomer 1]	> 5.70	< 2 µM	> 5.70	–	–
CC(C)(C)c1ccc(N(C(=O)[C@H]2[C@H](F)CCN2C#N)C(C(=O)NC2CCC(F)(F)CC2)c2cncc(F)c2)cc1 (single isomer, unassigned) [1212 Isomer 2]	> 5.70	–	–	< 2 µM	> 5.70
CO[C@@H]1C[C@H](C(=O)N(c2ccc(C(C)(C)C)cc2)C(C)(C(=O)NC2CCCCC2)c2cccnc2)N(C#N)C1 (single isomer, unassigned) [1230 Isomer 1]	< 4.52	–	5.00 to 5.70	> 30 µM	–
CO[C@@H]1C[C@H](C(=O)N(c2ccc(C(C)(C)C)cc2)C(C)(C(=O)NC2CCCCC2)c2cccnc2)N(C#N)C1 (single isomer, unassigned) [1230 Isomer 2]	> 5.70	–	> 5.70	< 2 µM	–
CO[C@@H]1C[C@H](C(=O)N(c2ccc(C(C)(C)C)cc2)C(C)(C(=O)NC2CCC(F)(F)CC2)c2cccnc2)N(C#N)C1 (single isomer, unassigned) [1232 Isomer 1]	5.00 to 5.70	2 to 10 µM	5.00 to 5.70	–	–
CO[C@@H]1C[C@H](C(=O)N(c2ccc(C(C)(C)C)cc2)C(C)(C(=O)NC2CCC(F)(F)CC2)c2cccnc2)N(C#N)C1 (single isomer, unassigned) [1232 Isomer 2]	> 5.70	–	> 5.70	< 2 µM	–
CO[C@@H]1C[C@H](C(=O)N(c2ccc(S(F)(F)(F)(F)F)cc2)C(C)(C(=O)NC2CCC(F)(F)CC2)c2cccnc2)N(C#N)C1 (single isomer, unassigned) [1259 Isomer 1]	5.00 to 5.70	2 to 10 µM	> 5.70	–	–
CO[C@@H]1C[C@H](C(=O)N(c2ccc(S(F)(F)(F)(F)F)cc2)C(C(=O)NC2CCC(F)(F)CC2)c2cncc(F)c2)N(C#N)C1 (single isomer, unassigned) [1265 Isomer 1]	> 5.70	< 2 µM	> 5.70	–	–
CO[C@@H]1C[C@H](C(=O)N(c2ccc(S(F)(F)(F)(F)F)cc2)C(C(=O)NC2CCC(F)(F)CC2)c2cncc(F)c2)N(C#N)C1 (single isomer, unassigned) [1265 Isomer 2]	> 5.70	–	–	< 2 µM	> 5.70
N#CN1C[C@@H](OCc2ccccc2)C[C@@H]1C(=O)N(c1ccc(S(F)(F)(F)(F)F)cc1)C(C(=O)NC1CCC(F)(F)CC1)c1cncc(F)c1 (single isomer, unassigned) [1280 Isomer 1]	> 5.70	< 2 µM	> 5.70	–	–
N#CN1C[C@@H](OCc2ccccc2)C[C@@H]1C(=O)N(c1ccc(S(F)(F)(F)(F)F)cc1)C(C(=O)NC1CCC(F)(F)CC1)c1cncc(F)c1 (single isomer, unassigned) [1280 Isomer 2]	< 4.52	–	5.00 to 5.70	2 to 10 µM	–
CO[C@@H]1C[C@H](C(=O)N(c2ccc(S(F)(F)(F)(F)F)cc2F)C(C(=O)NC2CCC(F)(F)CC2)c2cccnc2)N(C#N)C1 (single isomer, unassigned) [1288 Isomer 1]	> 5.70	< 2 µM	> 5.70	–	–
CO[C@@H]1C[C@H](C(=O)N(c2ccc(S(F)(F)(F)(F)F)cc2F)C(C(=O)NC2CCC(F)(F)CC2)c2cccnc2)N(C#N)C1 (single isomer, unassigned) [1288 Isomer 2]	> 5.70	–	–	2 to 10 µM	> 5.70
N#CN1C[C@H](O)C[C@@H]1C(=O)N(c1ccc(S(F)(F)(F)(F)F)cc1F)C(C(=O)NC1CCC(F)(F)CC1)c1cccnc1 (single isomer, unassigned) [1288a Isomer 1]	> 5.70	< 2 µM	> 5.70	–	–
N#CN1C[C@H](O)C[C@@H]1C(=O)N(c1ccc(S(F)(F)(F)(F)F)cc1F)C(C(=O)NC1CCC(F)(F)CC1)c1cccnc1 (single isomer, unassigned) [1288a Isomer 2]	5.00 to 5.70	–	–	2 to 10 µM	> 5.70
N#CC1(C(=O)N(c2ccc(S(F)(F)(F)(F)F)cc2)C(C(=O)NC2CCC(F)(F)CC2)c2cncc(F)c2)CC1 (single isomer, unassigned) [1289 Isomer 1, 1-cyano-N-[2-[(4,4-difluorocyclohexyl)amino]-1-(5-fluoro-3-pyridyl)-2-oxo-ethyl]-N-[4-(pentafluoro-λ^6-sulfanyl)phenyl]cyclopropanecarboxamide]	< 4.52	> 30 µM	< 4.52	–	–

Structure (SMILES)	pIC50 [1]	IC50 (HCov OC43; [2])	pEC50 (229E Mpro; 229E Mpro EC50)	IC50 (HCov OC43; [3])	pEC50 (229E Mpro; read-out: 229E Mpro EC50)
N#CC1(C(=O)N(c2ccc(S(F)(F)(F)(F)F)cc2)C(C(=O)NC2CCC(F)(F)CC2)c2cncc(F)c2)CC1 (single isomer, unassigned) [1289 Isomer 2, 1-cyano-N-[2-[(4,4-difluorocyclohexyl)amino]-1-(5-fluoro-3-pyridyl)-2-oxo-ethyl]-N-[4-(pentafluoro-λ^6-sulfanyl)phenyl]cyclopropanecarboxamide]	< 4.52	–	–	> 30 µM	< 4.52
CO[C@@H]1C[C@H](C(=O)N(c2ccc(S(F)(F)(F)(F)F)cc2)C(C(=O)NCC2(C)CCCN(C(=O)OC(C)(C)C)C2)c2cccnc2)N(C#N)C1 (single isomer, unassigned) [1290 Isomer 1]	> 5.70	2 to 10 µM	> 5.70	–	–
CO[C@@H]1C[C@H](C(=O)N(c2ccc(S(F)(F)(F)(F)F)cc2)C(C(=O)NCC2(C)CCCN(C(=O)OC(C)(C)C)C2)c2cccnc2)N(C#N)C1 (single isomer, unassigned) [1290 Isomer 2]	4.52 to 5.00	–	5.00 to 5.70	2 to 10 µM	–
CO[C@@H]1C[C@H](C(=O)N(c2ccc(S(F)(F)(F)(F)F)cc2)C(C)(C(=O)NC2CCC(F)(F)CC2)c2cnccn2)N(C#N)C1 (single isomer, unassigned) [1299 Isomer 1]	5.00 to 5.70	2 to 10 µM	> 5.70	–	–
CO[C@@H]1C[C@H](C(=O)N(c2ccc(S(F)(F)(F)(F)F)cc2)C(C)(C(=O)NC2CCC(F)(F)CC2)c2cnccn2)N(C#N)C1 (single isomer, unassigned) [1299 Isomer 2]	> 5.70	–	–	< 2 µM	> 5.70
CO[C@@H]1C[C@H](C(=O)N(c2ccc(S(F)(F)(F)(F)F)cc2)C(C(=O)NC(C)C2CCCCN2C(=O)OC(C)(C)C)c2cccnc2)N(C#N)C1 (single isomer, unassigned) [1303 Isomer 1]	5.00 to 5.70	–	> 5.70	2 to 10 µM	–
CO[C@@H]1C[C@H](C(=O)N(c2ccc(S(F)(F)(F)(F)F)cc2)C(C(=O)NC(C)C2CCCCN2C(=O)OC(C)(C)C)c2cccnc2)N(C#N)C1 (single isomer, unassigned) [1303 Isomer 2.1]	5.00 to 5.70	–	5.00 to 5.70	10 to 30 µM	–
CO[C@@H]1C[C@H](C(=O)N(c2ccc(S(F)(F)(F)(F)F)cc2)C(C(=O)NC(C)C2CCCCN2C(=O)OC(C)(C)C)c2cccnc2)N(C#N)C1 (single isomer, unassigned) [1303 Isomer 2.2]	> 5.70	–	> 5.70	< 2 µM	–
CO[C@@H]1C[C@H](C(=O)N(c2ccc(S(F)(F)(F)(F)F)cc2)C(C(=O)NC(C)C2CCCCN2C(=O)OC(C)(C)C)c2cccnc2)N(C#N)C1 (single isomer, unassigned) [1303 Isomer 2]	> 5.70	–	> 5.70	< 2 µM	–
CO[C@@H]1C[C@H](C(=O)N(c2ccc(S(F)(F)(F)(F)F)cc2)C(C(=O)NC(C)C2CCCCN2C(=O)OC(C)(C)C)c2cccnc2)N(C#N)C1 (single isomer, unassigned) [1303 Isomer 3.1]	> 5.70	–	> 5.70	< 2 µM	–
CO[C@@H]1C[C@H](C(=O)N(c2ccc(S(F)(F)(F)(F)F)cc2)C(C(=O)NC(C)C2CCCCN2C(=O)OC(C)(C)C)c2cccnc2)N(C#N)C1 (single isomer, unassigned) [1303 Isomer 3.2]	< 4.52	–	4.52 to 5.00	> 30 µM	–
CO[C@@H]1C[C@H](C(=O)N(c2ccc(S(F)(F)(F)(F)F)cc2)C(C(=O)NC(C)C2CCCCN2C(=O)OC(C)(C)C)c2cccnc2)N(C#N)C1 (single isomer, unassigned) [1303 Isomer 3]	> 5.70	–	> 5.70	< 2 µM	–
Cc1nc[nH]c1C(C(=O)NC1CCC(F)(F)CC1)N(C(=O)[C@H]1C[C@@](C)(O)CN1C#N)c1ccc(S(F)(F)(F)(F)F)cc1 (single isomer, unassigned) [1324 Isomer 1]	< 4.52	–	4.52 to 5.00	> 30 µM	–
Cc1nc[nH]c1C(C(=O)NC1CCC(F)(F)CC1)N(C(=O)[C@H]1C[C@@](C)(O)CN1C#N)c1ccc(S(F)(F)(F)(F)F)cc1 (single isomer, unassigned) [1324 Isomer 2]	4.52 to 5.00	–	–	2 to 10 µM	4.52 to 5.00
C[C@H](NC(=O)C(c1cncc(F)c1)N(C(=O)[C@H]1C[C@@](C)(O)CN1C#N)c1ccc(S(F)(F)(F)(F)F)cc1)c1ccccc1 (single isomer, unassigned) [1328 Isomer 1]	> 5.70	< 2 µM	> 5.70	–	–
C[C@H](NC(=O)C(c1cncc(F)c1)N(C(=O)[C@H]1C[C@@](C)(O)CN1C#N)c1ccc(S(F)(F)(F)(F)F)cc1)c1ccccc1 (single isomer, unassigned) [1328 Isomer 2]	5.00 to 5.70	–	–	2 to 10 µM	> 5.70
